Assay type in all cases: functional, cell-based
The test system of test [1] is FaDu. In words: Cytotoxic activity against human FADU bulk cells incubated for 72 hrs by Cell-titer-Glo luminescence assay.
Test [2] concerns ACHN. Put plainly: Cytotoxic activity against human ACHN bulk cells incubated for 72 hrs by Cell-titer-Glo luminescence assay.
The test system of test [3] is A549. Put plainly: Cytotoxic activity against human A549 bulk cells incubated for 72 hrs by Cell-titer-Glo luminescence assay. As to conditions: A549, 72 h.
Test [4] relates to FaDu. In words: Cytotoxic activity against human FADU cancer stem cells incubated for 72 hrs by Cell-titer-Glo luminescence assay.
For test [5], the system named is A549. Put plainly: Cytotoxic activity against human A549 cancer stem cells incubated for 72 hrs by Cell-titer-Glo luminescence assay. As to conditions: A549, 72 h.

As to `COC(=O)c1c(C)[nH]c(/C=C2\C(=O)Nc3ccc(-c4csc(-c5ccccc5)n4)cc32)c1C`, the IC50 in test [1] worked out at 21.8 µM; in test [2] it was 1.16 µM; in test [3], 16.3 µM.

Consider `CCN(CC)CCNC(=O)c1c(C)[nH]c(/C=C2\C(=O)Nc3ccc(-c4csc(-c5ccc(CCC(=O)O)cc5)n4)cc32)c1C`, for which the IC50 in test [4] was 4.88 µM; in test [5] it was 4.21 µM.

For the compound `CCN(CC)CCNC(=O)c1c(C)[nH]c(/C=C2\C(=O)Nc3ccc(-c4ccnn4-c4ccc(C#N)cc4)cc32)c1C`, the IC50 was found to be 4.96 µM in test [4] and 17.3 µM in test [1].

`Cc1cc(C)c(/C=C2\C(=O)Nc3ccc(-c4cnc5ccccc5n4)cc32)[nH]1`: the IC50 stood at 0.09 µM in test [4], 25.8 µM in test [1], 10.6 µM in test [2] and 7.89 µM in test [3].

For the compound `O=C1Nc2ccc(-c3csc(-c4ccccc4)n3)cc2/C1=C/c1ccc(N2CCNCC2)cc1`, the IC50 in test [1] stood at 2.59 µM; in test [3], 5.79 µM.

Turning to `CCN(CC)CCNC(=O)c1c(C)[nH]c(/C=C2\C(=O)Nc3ccc(-n4cc(-c5ccccc5)nn4)cc32)c1C`, the IC50 in test [4] turned out to be 3 µM; in test [1] it was 6.58 µM; in test [2], 7.16 µM.

For the compound `CCN(CC)CCNC(=O)c1c(C)[nH]c(/C=C2\C(=O)Nc3ccc(-c4cnc(-c5ccccc5)o4)cc32)c1C`, the figures for the IC50 in test [4], in test [1] and in test [2] were 41.5 µM, 9.73 µM and 12.2 µM, respectively.

Take `CCN(CC)CCNC(=O)c1c(C)[nH]c(/C=C2\C(=O)Nc3ccc(-c4cn(-c5ccccc5)nn4)cc32)c1C`: the IC50 in test [4] was found to be 2.9 µM; in test [1], 6.74 µM; in test [2], 4.73 µM; in test [3] it was 4.88 µM.

Turning to `Cc1cc(C)c(/C=C2\C(=O)Nc3ccc(-c4cnc5cccnn45)cc32)[nH]1`, the IC50 was 1.55 µM in test [4], 5.23 µM in test [1], 8.66 µM in test [5] and 12.5 µM in test [3].

With `Cc1[nH]c(/C=C2\C(=O)Nc3ccc(-c4csc(-c5ccccc5)n4)cc32)c(C)c1CCC(=O)O`, the IC50 in test [5] is 1.65 µM.

In the case of `CCN(CC)CCNC(=O)c1c(C)[nH]c(/C=C2\C(=O)Nc3ccc(-c4cnc(SC)cn4)cc32)c1C`, the IC50 in test [1] was found to be 5.96 µM; in test [2], 12.3 µM; in test [5], 30 µM; in test [3], 6.06 µM.

`CCN(CC)CCNC(=O)c1ccc(/C=C2\C(=O)Nc3ccc(-c4csc(-c5ccccc5)n4)cc32)[nH]c1=O`: the IC50 in test [4] was 6.15 µM; in test [1], 3.1 µM; in test [2], 3.31 µM; in test [3] it was 3.64 µM.

`Cc1cc(C)c(/C=C2\C(=O)Nc3cc(-c4cnc5ccccn45)ccc32)[nH]1`: the half-inhibitory concentration (IC50) in test [1] came out at 19.4 µM; in test [2], 20.6 µM.

Take `Cc1[nH]c(/C=C2\C(=O)Nc3ccc(-c4cnc(-c5ccccc5)[nH]4)cc32)c(C)c1C(=O)N1CCN(C)CC1`: the IC50 in test [4] turned out to be 13.2 µM; in test [1] it was 5.54 µM.

`Cc1cc(C)c(/C=C2\C(=O)Nc3ccc(-c4csc(-c5ccccc5)n4)cc32)[nH]1`: the IC50 amounted to 6.49 µM in test [4], 7.87 µM in test [1] and 5.31 µM in test [2].

Take `COc1ccc(-c2ccc3c(c2)/C(=C/c2[nH]c(C)cc2C)C(=O)N3)c(C)c1`: the IC50 in test [1] came to 19.8 µM; in test [2], 24.8 µM.

On to `O=C1Nc2ccc(-c3csc(-c4ccncc4)n3)cc2/C1=C/c1ccc(N2CCNCC2)cc1`, for which the results for the IC50 in test [1] and in test [3] were 25.2 µM and 8.73 µM, respectively.

`O=C1Nc2ccc(-c3csc(-c4ccncc4)n3)cc2/C1=C/c1cc2c([nH]1)CCCC2`: the IC50 worked out at 37.8 µM in test [2] and 0.8 µM in test [5].

In the case of `O=C1Nc2ccc(-c3csc(-c4ccccc4)n3)cc2/C1=C/c1[nH]c(C(=O)O)c2c1CCCC2`, the IC50 in test [4] was determined as 4.49 µM; in test [2] it was 24.9 µM.

Turning to `CCN(CC)CCNC(=O)c1c(C)[nH]c(/C=C2\C(=O)Nc3ccc(-c4csc(C5CCNC5)n4)cc32)c1C` (configuration not stated), the IC50 amounted to 2.42 µM in test [1], 6.75 µM in test [2], 32.5 µM in test [5] and 0.72 µM in test [3].

`CCN(CC)CCNC(=O)c1c(C)[nH]c(/C=C2\C(=O)Nc3ccc(C4CCN(c5ncccn5)CC4)cc32)c1C`: the IC50 was 18.8 µM in test [4] and 6.47 µM in test [1].

With `Cc1[nH]c(/C=C2\C(=O)Nc3ccc(-c4ccnn4-c4ccccc4)cc32)c(C)c1C(=O)N1CCN(C)CC1`, the IC50 in test [4] came out at 11.5 µM; in test [1], 4.55 µM.

Turning to `Cc1[nH]c(/C=C2\C(=O)Nc3ccc(-c4cnc(-c5ccccc5)o4)cc32)c(C)c1C(=O)N1CCN(C)CC1`, the IC50 in test [4] was found to be 9.35 µM; in test [1] it was 12.1 µM.

As to `Cc1[nH]c(/C=C2\C(=O)Nc3ccc(-c4cnn(-c5ccccc5)c4C)cc32)c(C)c1C(=O)NCCN1CCCC1`, the IC50 came to 1.31 µM in test [4] and 5.79 µM in test [1].

`Cc1cc(C)c(/C=C2\C(=O)Nc3ccc(-c4ccc(C(=O)c5ccccc5)cc4)cc32)[nH]1`: the IC50 was 22.4 µM in test [1] and 21.8 µM in test [2].

With `CC(=O)N1CCC(N2CCC(c3ccc4c(c3)/C(=C/c3[nH]c(C)c(C(=O)N5CCN(C)CC5)c3C)C(=O)N4)CC2)CC1`, the IC50 in test [4] amounted to 15.6 µM; in test [1], 23.2 µM.

Turning to `Cc1[nH]c(/C=C2\C(=O)Nc3ccc(-c4cnn(-c5ccccc5)c4C)cc32)c(C)c1C(=O)N1CCOCC1`, the half-maximal inhibitory concentration (IC50) in test [4] came to 37.2 µM; in test [1], 6.76 µM.

For `CCN(CC)CCNC(=O)c1c(C)[nH]c(/C=C2\C(=O)Nc3ccc(-c4nnc(-c5ccccc5)s4)cc32)c1C`, the IC50 in test [4] is 0.23 µM; in test [1] it was 2.15 µM; in test [3] it was 48.9 µM.

With `CCN(CC)CCNC(=O)c1c(C)[nH]c(/C=C2\C(=O)Nc3ccc(-c4ccc(-c5cccnc5)s4)cc32)c1C`, the IC50 in test [4] was determined as 40.8 µM; in test [1] it was 14.3 µM.

`CCN(CC)CCNC(=O)c1c(C)[nH]c(/C=C2\C(=O)Nc3ccc(-c4csc(-c5cccc(CCC(=O)O)c5)n4)cc32)c1C`: the IC50 in test [4] stood at 4.88 µM; in test [1], 1.77 µM; in test [2], 1.27 µM; in test [5] it was 4.21 µM.

Consider `CCN(CC)CCNC(=O)c1c(C)[nH]c(/C=C2\C(=O)Nc3ccc(-c4nc(-c5ccccc5)n[nH]4)cc32)c1C`, for which the IC50 was found to be 2.8 µM in test [4] and 6.16 µM in test [1].

With `COc1ccc(-c2ccc3c(c2)/C(=C/c2[nH]c(C)cc2C)C(=O)N3)nc1`, in test [3], the half-maximal inhibitory concentration (IC50) was found to be 0.07 µM. This counts as double-digit nanomolar.

Turning to `CCN(CC)CCNC(=O)c1c(C)[nH]c(/C=C2\C(=O)Nc3cnc(-c4csc(-c5ccccc5)n4)cc32)c1C`, the IC50 in test [4] was found to be 4.75 µM; in test [1], 11.2 µM.

As for `CCOC(=O)c1cc(C)c(/C=C2\C(=O)Nc3ccc(-c4csc(-c5ccccc5)n4)cc32)[nH]1`, the IC50 in test [1] stood at 13.5 µM; in test [2], 0.39 µM; in test [5], 13.2 µM; in test [3] it was 40 µM.

Take `Cc1cc(C)c(/C=C2\C(=O)Nc3ccc(-c4nc5ccccc5s4)cc32)[nH]1`: the IC50 amounted to 26.8 µM in test [1], 14.7 µM in test [2] and 16.1 µM in test [3].

`CCN(CC)CCNC(=O)c1c(C)[nH]c(/C=C2\C(=O)Nc3ccc(-c4csc(-c5cccc(Br)c5)n4)cc32)c1C`: the values for the IC50 in test [4] and in test [1] were 7.82 µM and 24.8 µM, respectively.

Take `Cc1cc(C)c(/C=C2\C(=O)Nc3ccc(-c4ncccn4)cc32)[nH]1`: the IC50 amounted to 25.2 µM in test [4], 26.1 µM in test [1], 25.3 µM in test [2] and 28.7 µM in test [5].

Consider `Cc1[nH]c(/C=C2\C(=O)Nc3ccc(-c4cnn(-c5ccccn5)c4)cc32)c(C)c1C(=O)N1CCN(C)CC1`, for which the IC50 in test [4] was 0.24 µM; in test [1] it was 3.67 µM; in test [5], 11.7 µM; in test [3], 18.9 µM.

As to `Cc1[nH]c(/C=C2\C(=O)Nc3ccc(-c4csc(-c5ccncc5)n4)cc32)c(C)c1CCC(=O)O`, in test [2], the IC50 came to 14.6 µM.

For `Cc1cc(C)c(/C=C2\C(=O)Nc3ccc(-c4ccc5ccccc5n4)cc32)[nH]1`, 7.44 µM corresponded to half-maximal inhibition in test [2] (IC50).

Consider `CCN(CC)CCNC(=O)c1c(C)[nH]c(/C=C2\C(=O)Nc3ccc(C4CCN(C5CCN(C(C)=O)CC5)CC4)cc32)c1C`, for which the IC50 amounted to 1 µM in test [4], 3.32 µM in test [1], 4.8 µM in test [2] and 29.6 µM in test [3].

With `Cc1cc(C)c(/C=C2\C(=O)Nc3ccc(-c4nccc5ccccc45)cc32)[nH]1`, the IC50 in test [1] turned out to be 23.5 µM; in test [3], 18.4 µM.

As to `CCN(CC)CCNC(=O)c1c(C)[nH]c(/C=C2\C(=O)Nc3ccc(C4CCN(c5ccccc5)CC4)cc32)c1C`, the IC50 in test [4] worked out at 1.3 µM; in test [1] it was 1.89 µM; in test [3], 16 µM.

Turning to `Cc1cc(C)c(/C=C2\C(=O)Nc3cc(-c4ccncc4)ccc32)[nH]1`, the IC50 in test [1] came to 18.4 µM; in test [5] it was 0.98 µM.

On to `Cc1cc(C)c(/C=C2\C(=O)Nc3ccc(-c4cncnc4)cc32)[nH]1`, for which the IC50 in test [2] was determined as 12.8 µM; in test [3], 20.8 µM.

The compound `CCN(CC)CCNC(=O)c1[nH]c(/C=C2\C(=O)Nc3ccc(-c4csc(-c5ccccc5)n4)cc32)c2c1CCCC2` registered an IC50 in test [2] of 9.91 µM.

Take `CCN(CC)CCN1CCCc2[nH]c(/C=C3\C(=O)Nc4ccc(-c5csc(-c6ccccc6)n5)cc43)c(C)c2C1=O`: the values for the IC50 in test [1] and in test [3] were 5.31 µM and 18 µM, respectively.

On to `CCN(CC)CCNC(=O)c1c(C)[nH]c(/C=C2\C(=O)Nc3ccc(-c4nnc(-c5ccccc5)o4)cc32)c1C`, for which the IC50 in test [4] amounted to 21.5 µM; in test [1], 8.23 µM.

As for `CCN(CC)CCNC(=O)c1c(C)[nH]c(/C=C2\C(=O)Nc3ccc(-c4cnc(-c5ccccc5)[nH]4)cc32)c1C`, the figures for the IC50 in test [1] and in test [2] were 5.34 µM and 20.6 µM, respectively.

Turning to `Cc1cc(C)c(/C=C2\C(=O)Nc3ccc(-c4cc(-c5ccccc5)ccn4)cc32)[nH]1`, the IC50 is 22.4 µM in test [1], 35.7 µM in test [5] and 13.8 µM in test [3].

In the case of `CCN(CC)CCNC(=O)c1c(C)[nH]c(/C=C2\C(=O)Nc3ccc(-c4csc(-c5ccc(Br)cc5)n4)cc32)c1C`, the values for the IC50 in test [4] and in test [1] were 1.33 µM and 3.68 µM, respectively.

The record behind these values is ChEMBL document CHEMBL3727348, “3-(aryl or heteroaryl) methyleneindolin-2-one derivatives as inhibitors of cancer stem cell pathway kinases for the treatment of cancer” (2014).
